In patent publication US20250090437A1, “COSMETIC COMPOUNDING AGENT, COSMETIC AND PRODUCTION METHOD THEREOF” (MIYOSHI OIL & FAT CO., LTD., priority 2019, published 2025):

Experiments:
[1] = Water retention property test 1; format: physicochemical; conditions: 80 wt % aqueous solution; for Water retention property test 1 Post-test moisture rate / Water retention property test 1 Rate of reduction in moisture / Post-test moisture rate / Rate of reduction in moisture: 24 hours at 40° C. and 25% RH; for Pre-test moisture rate: before the test (Karl Fischer); for Post-test moisture rate / Rate of reduction in moisture: unsealed
Procedure: A moisture rate after 24 hours was again measured (post-test moisture rate: B), followed by using the formula below to calculate a rate of reduction in moisture so as to evaluate the water retention property. • Pre-test moisture rate: A (%) • Post-test moisture rate: B (%)

[2] = Water retention property test 2 (hydrates); format: physicochemical; conditions: hydrate (anhydrides: aqueous solution at mono- to trihydrate concentration); for Pre-test moisture rate: before the test; for Post-test moisture rate / Rate of reduction in moisture: unsealed, 24 hours at 40° C. and 25% RH
Procedure: (2) Water retention property test 2 The water retention property of the hydrate of each compound was evaluated. Hydrates were used in the cases of the compounds C1 to C38, C40 to C49 and C56 to C59; however, since the compounds C39 and C62 to C64 were anhydrides, there were used aqueous solutions prepared by adding water so that a concentration would be that of monohydrate to trihydrate. The moisture rate of the sample(s) was confirmed using a Karl Fischer moisture meter (pre-test moisture rate: A). Next, 1.0 g of each of these samples was added to a screw tube, and this screw tube, while remaining unsealed, was then left to stand still for 24 hours in a thermo-hygrostat set to 40° C. and 25% RH. A moisture rate after 24 hours was again measured (post-test moisture rate: B), followed by calculating a rate of reduction in moisture in a similar manner as above so as to evaluate the water retention property. Here, a comparative evaluation was performed on each hydrate of the compounds C1 to C38, C40 to C49 and C56 to C59 together with an aqueous solution(s) of the compound C39 having a concentration(s) corresponding to the numbers of these hydration waters.
(monohydrates in compounds C1 to C38, C40 to C49 and C56 to C59 of working examples C62 to C99, C103 to C116 with compound C39 of working example C100, compound C62 of comparative example C4, compound C63 of comparative example C7 and compound C64 of comparative example C10)
(dihydrates in compounds C1 to C38, C40 to C49 and C56 to C59 of working examples C62 to C99, C103 to C116 with compound C39 of working example C101, compound C62 of comparative example C5, compound C63 of comparative example C8 and compound C64 of comparative example C11)
(trihydrates in compounds C1 to C38, C40 to C49 and C56 to C59 of working examples C62 to C99, C103 to C116 with compound C39 of working example C102, compound C62 of comparative example C6, compound C63 of comparative example C9 and compound C64 of comparative example C12)

| Structure (SMILES) | Water retention property test 1 Pre-test moisture rate [1] | Water retention property test 1 Post-test moisture rate [1] [%] | Water retention property test 1 Rate of reduction in moisture [1] [%] | Pre-test moisture rate [2] [%] | Post-test moisture rate [2] [%] | Rate of reduction in moisture [2] [%] | also measured |
| --- | --- | --- | --- | --- | --- | --- | --- |
| CC(CO)CO [Compound C45] | 20.0% | 19.5 | 2.5 | – | – | – | – |
| C[N+](C)(C)CCO.O=[PH2][O-] [Compound C34] | 20.0% | 19.4 | 3.0 | – | – | – | – |
| C[N+](C)(CCO)CC(O)CO.[Cl-] (stereo not drawn) [Compound C37] | 20.0% | 18.3 | 8.3 | – | – | – | – |
| C[N+](C)(C)CCO.O=C([O-])C=CC(=O)O [Compound C30] | 20.0% | 19.0 | 5.5 | – | – | – | – |
| CS(=O)(=O)[O-].C[N+](C)(C)CCO [Compound C32] | 20.0% | 19.6 | 2.2 | – | – | – | – |
| C[N+](C)(C)CCO.O=C1OC(C(O)CO)C([O-])=C1O (stereo not drawn) [Compound C57] | – | – | – | – | – | – | Pre-test moisture rate [1]: 20.0%; Post-test moisture rate [1]: 19.0%; Rate of reduction in moisture [1]: 5.0% |
| O=C1OC(C(O)CO)C(O)=C1O.OCCN(CCO)CCO (stereo not drawn) [Compound C42] | 20.0% | 19.1 | 4.4 | – | – | – | – |
| CC[N+](C)(C)CCO.CS(=O)(=O)[O-] [Compound C36] | 20.0% | 19.6 | 2.0 | – | – | – | – |
| CC(O)C(=O)[O-].CCC(CO)(CO)[N+](CC(O)CO)(CC(O)CO)CC(O)CO (stereo not drawn) [Compound C25] | 20.0% | 19.0 | 5.0 | – | – | – | – |
| C[N+](C)(CCO)CC(O)C[N+](C)(C)CCO.[Cl-].[Cl-] [Compound C38] | 20.0% | 18.1 | 9.5 | – | – | – | – |
| CS(=O)(=O)O.NC(CO)(CO)CO [Compound C22] | 20.0% | 19.8 | 1.2 | – | – | – | – |
| CC(O)C(=O)[O-].OCC[N+](CCO)(CCO)CCO [Compound C26] | 20.0% | 19.0 | 5.0 | – | – | – | – |
| C[N+](C)(C)CCO.O=C([O-])CCC(=O)O [Compound C31] | 20.0% | 19.0 | 5.5 | – | – | – | – |
| CCC(C)(CO)CO [Compound C48] | 20.0% | 19.4 | 2.9 | – | – | – | – |
| CC(O)C(=O)O.OCCNCCO [Compound C2] | 20.0% | 19.0 | 4.8 | – | – | – | – |
| CC(O)C(=O)O.NCCO (stereo not drawn) [Compound C1] | 20.0% | 19.3 | 3.5 | – | – | – | – |
| CCC(O)C(O)C(O)C(O)CO (stereo not drawn) [Compound C56] | – | – | – | – | – | – | Pre-test moisture rate [1]: 20.0%; Post-test moisture rate [1]: 19.7%; Rate of reduction in moisture [1]: 1.7% |
| NCCO.O=C1OC(C(O)CO)C(O)=C1O (stereo not drawn) [Compound C40] | 20.0% | 19.5 | 2.3 | – | – | – | – |
| CC(O)C(=O)[O-].CCCC[N+](CCCC)(CCCC)CCCC [Working example C102] | – | – | – | 14.0 | 12.3 | 12.0 | – |
| CC(=O)[O-].C[N+](C)(C)CCO [Compound C27] | 20.0% | 19.0 | 5.0 | – | – | – | – |
| CC(O)C(=O)O.CCC(N)(CO)CO [Working example C76] | – | – | – | 14.7 | 14.3 | 3.0 | – |

| Structure (SMILES) | Water retention property test 1 Pre-test moisture rate [1] | Water retention property test 1 Post-test moisture rate [1] [%] | Water retention property test 1 Rate of reduction in moisture [1] [%] | Pre-test moisture rate [2] [%] | Post-test moisture rate [2] [%] | Rate of reduction in moisture [2] [%] | also measured |
| --- | --- | --- | --- | --- | --- | --- | --- |
| CC(O)C(=O)O.N (stereo not drawn) [Compound C24] | 20.0% | 19.0 | 4.9 | – | – | – | – |
| C[N+](C)(C)CCO.O=P([O-])(O)O [Compound C33] | 20.0% | 19.4 | 3.0 | – | – | – | – |
| NC(CO)(CO)CO.O=C(O)CC(O)(CC(=O)O)C(=O)O [Compound C21] | 20.0% 20.0% | 19.0 | 5.1 | – | – | – | – |
| C[N+](C)(C)CC(O)CC(=O)O.O=C1O[C@H]([C@@H](O)CO)C([O-])=C1O [Compound C58] | – | – | – | – | – | – | Pre-test moisture rate [1]: 20.0%; Post-test moisture rate [1]: 19.2%; Rate of reduction in moisture [1]: 4.1% |
| C[N+](C)(CCO)CC(O)C[N+](C)(C)CCO.[Cl-].[Cl-] [Working example C99] | – | – | – | 10.5 | 9.4 | 10.2 | – |
| O=C(O)CO.OCCNCCO [Working example C64] | – | – | – | 16.6 | 16.1 | 3.0 | – |
| CCCC[N+](CCCC)(CCCC)CCCC.[Br-] [Comparative example C5] | – | – | – | 10.1 | 8.6 | 15.1 | – |
| CC(=O)OCC[N+](C)(C)C.O=C1O[C@H]([C@@H](O)CO)C([O-])=C1O [Compound C59] | – | – | – | – | – | – | Pre-test moisture rate [1]: 20.0%; Post-test moisture rate [1]: 19.3%; Rate of reduction in moisture [1]: 3.5% |
| C[N+](C)(C)CC(O)CC(=O)O.O=C1O[C@H]([C@@H](O)CO)C([O-])=C1O [Working example C111] | – | – | – | 9.7 | 9.6 | 1.0 | – |
| CC(O)C(=O)O.OCCNCCO [Working example C63] | – | – | – | 15.6 | 14.9 | 4.6 | – |
| OCC(O)CO [Comparative example C11] | – | – | – | 28.1 | 24.4 | 13.3 | – |
| NC(CO)(CO)CO.O=C1OC(C(O)CO)C(O)=C1O (stereo not drawn) [Working example C108] | – | – | – | 10.8 | 10.5 | 2.8 | – |
| NCC(O)C(O)C(O)C(O)CO.O=C1OC(C(O)CO)C(O)=C1O (stereo not drawn) [Working example C109] | – | – | – | 9.2 | 9.1 | 1.1 | – |
| OCC(O)CO [Comparative example C10] | – | – | – | 16.4 | 15.3 | 6.7 | – |
| O=C(O)CCC(=O)O.OCCNCCO [Working example C65] | – | – | – | 13.9 | 13.1 | 6.0 | – |
| NC(CO)(CO)CO.O=C(O)CC(O)(CC(=O)O)C(=O)O [Working example C82] | – | – | – | 10.3 | 9.8 | 5.0 | – |
| CC(O)C(=O)O.NC(CO)CO (stereo not drawn) [Working example C69] | – | – | – | 16.6 | 16.1 | 2.8 | – |
| C[N+](C)(C)CCO.O=C([O-])C=CC(=O)O [Working example C91] | – | – | – | 7.6 | 7.2 | 5.0 | – |
| NC(CO)CO.O=C1O[C@H]([C@@H](O)CO)C(O)=C1O [Comparative example C106] | – | – | – | 11.9 | 11.7 | 1.7 | – |
| NC(CO)CO.O=C(O)CCC(=O)O [Working example C70] | – | – | – | 14.7 | 13.9 | 5.4 | – |
